In US20030050249A1, “Complexes of alpha-6 integrin subunits with small peptides and methods for treating indications resulting from modulation of integrin-mediated responses by altering signal transduction” (priority 2000, published 2003):
Ends that are not written are not given here. Peptide text beside a SMILES is read from it. * marks the point of attachment. For = O=C*

Key:
[1] = system: rat peritoneal mast cells; assay: Binding of FITC-HK-X to rat peritoneal mast cells; details: freshly isolated mast cells, FIG. 3
Method: Rat peritoneal mast cells were isolated by infusion of 35 ml of Tyrode's Solution into the peritoneal cavity of anesthetized rats. The rats were then sacrificed by injection of an overdose of anesthetic. The peritoneal cells were harvested, placed into 15 ml centrifuge tubes. The cells were pelleted by centrifugation at 250×g for 10 min at room temperature.
Other cell types were also tested for the ability to bind FITC labeled HK-X on their cell surface.

FPR = biological target: T1, FPR (Homo sapiens, UniProt P21462); details: compared with FMLP; cited from earlier work
T1 sequence (P21462 1-350): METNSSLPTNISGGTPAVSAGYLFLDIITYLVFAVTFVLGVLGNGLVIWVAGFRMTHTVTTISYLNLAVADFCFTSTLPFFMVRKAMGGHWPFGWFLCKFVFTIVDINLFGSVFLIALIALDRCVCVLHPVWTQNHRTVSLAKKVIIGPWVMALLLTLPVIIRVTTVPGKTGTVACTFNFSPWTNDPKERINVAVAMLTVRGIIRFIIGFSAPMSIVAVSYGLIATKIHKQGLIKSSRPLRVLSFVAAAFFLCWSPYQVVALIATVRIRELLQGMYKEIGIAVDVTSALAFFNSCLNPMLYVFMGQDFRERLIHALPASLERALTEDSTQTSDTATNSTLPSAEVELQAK

[2] = mouse, in vivo
inflamed lung = details: mouse, in vivo
Method: In this model HK-X was administered intranasally for up to 3 months.

[3] = HK-X administration to normal mice
[4] = system: normal human peripheral blood mononuclear cells; assay: Effects of HK-X on cultures of human peripheral blood mononuclear cells with and without Con A (cell cycle, viability, apoptosis); type: cell-based; details: versus vehicle
Method: The effects of addition of HK-X (as compared to a control of vehicle without peptide) to cultures of normal human peripheral blood mononuclear cells with and without the plant lectin, Con A, were also evaluated. […] However, HK-X induced apoptosis in a significant population of cells (˜30%) stimulated with Con A as determined by the presence of a sub G0/G1 population in the DNA profile. In cultures where the cells were not stimulated to enter the cell cycle (without Con A), the levels of sub G0/G1 were similar in HK-X treated and control cultures (<7%).

With “FITC-HK-X: fluoresceinated HK-X (f-Met-Leu-Phe-Phe) (MLFF; not fully specified; also: FITC label, site not given here)” as the molecule, how does the “numbers of FITC-HK-X bound” value [1] read?
The value was “roughly equivalent to that of human eosinophils”.

Which neutrophil function activity (FPR) does the source give for “Met-Met-Trp-Leu-Leu (MMWLL; printed: Met-Met-Trp-Leu-Leu)” here?
The neutrophil function activity was “comparable in neutrophil function activity to FMLP”.

Which toxicity [2] does the source give for `CSCC[C@H](NC=O)C(=O)N[C@@H](CC(C)C)C(=O)N[C@@H](Cc1ccccc1)C(=O)N[C@@H](Cc1ccccc1)C(=O)O` [HK-X, f-Met-Leu-Phe-Phe] (For-MLFF-OH) here?
The toxicity was “no discernable toxicity”.

And the “pathological changes in the alveoli, bronchi or vessels” value (inflamed lung)?
The value was “no pathological changes”.

What about the “distribution or numbers of nucleated cells of the peripheral blood” value ([3]; 10 μg to 1000 μg per adult mouse) of the same molecule?
The value was “no alterations”.

And the “numbers of antibody forming cells (PFC), IgM and IgG” value ([3]; mice immunized with sheep red cells, HK-X prior to and after immunization)?
The value was “no alteration”.

And the “Liver and kidney function” value ([3]; normal mice)?
Its value is “unaffected”.

What about the “production of required cytokines” value ([3]; normal mice) of the same molecule?
The value was “did not down regulate”.

What about the “proliferation and differentiation of hematopoietic precursors of neutrophils, basophils, monocytes and lymphocytes” value ([3]; normal mice) of the same molecule?
Its value is “did not negatively affect”.

What about the cell viability [4] of the same molecule?
The cell viability was “did not effect cell viability”.
